Each compound was assayed on P388 (assay: Cytotoxicity against mouse P388 cells after 72 hrs by MTT assay). Settings: P388, 72 h, read-out: ED50 (the source's name).
Assay type: functional

Question: How did the EC50 turn out when `C=C1[C@@H]2[C@H](OC(C)=O)C[C@@]3(C)[C@H](c4ccoc4)OC(=O)C[C@]13O[C@H]1[C@@H](OC(C)=O)[C@@H](OC(C)=O)C(C)(C)[C@H](CC(=O)OC)[C@@]21C` [CINERACIPADESIN E] was run?
Answer: > 5 µg/mL

Question: How did the EC50 turn out when `C=C1[C@]2(OC(C)=O)C[C@@]3(C)[C@H](c4ccoc4)OC(=O)C[C@]13O[C@H]1[C@@H](OC(C)=O)[C@@H](OC(C)=O)C(C)(C)[C@H](CC(=O)OC)[C@@]1(C)C2=O` [CINERACIPADESIN F] was run?
Answer: > 5 µg/mL

Question: How did the EC50 turn out when `C=C1[C@@]23CC(=O)O[C@@H](c4ccoc4)[C@]2(C)C[C@@H](O)[C@]1(O)[C@@]1(C)[C@@H](O3)[C@@H](OC(C)=O)[C@@H](OC(C)=O)C(C)(C)[C@@H]1CC(=O)OC` [CINERACIPADESIN B] was run?
Answer: > 5 µg/mL

Question: `CC[C@@H](C)C(=O)O[C@@H]1[C@H]2C(=O)[C@@](C)([C@@H](CC(=O)OC)C1(C)C)[C@@]13O[C@@H]1C[C@@]1(C)[C@H](c4ccoc4)OC(=O)C[C@@H]1[C@]31O[C@H]21` [CINERACIPADESIN A] was tested. Which EC50 did it give?
Answer: > 5 µg/mL

Question: For `C=C1[C@]2(O)C(=O)C[C@@]3(C)[C@H](c4ccoc4)OC(=O)C[C@]13O[C@H]1C[C@@H](OC(C)=O)C(C)(C)[C@H](CC(=O)OC)[C@]12C` [CINERACIPADESIN C], which EC50 is on record?
Answer: > 5 µg/mL

Question: For `C=C1[C@@H]2[C@H](OC(C)=O)C[C@@]3(C)[C@H](c4ccoc4)OC(=O)C[C@]13O[C@H]1C[C@@H](OC(C)=O)C(C)(C)[C@H](CC(=O)OC)[C@]12C` [CINERACIPADESIN D], which EC50 is on record?
Answer: > 5 µg/mL

Question: How did the EC50 turn out when `C=C1[C@@H]2CC[C@@]3(C)[C@H](c4ccoc4)OC(=O)C[C@]13O[C@H]1[C@H](OC(C)=O)[C@H](OC(C)=O)C(C)(C)[C@H](CC(=O)OC)[C@@]21C` was run?
Answer: > 5 µg/mL

Reference: ChEMBL document CHEMBL1151852, “Tetranortriterpenoids from the Leaves of Cipadessa cinerascens” (2009)
